Experimental data published in ChEMBL document CHEMBL1126122, “Non-prostanoid thromboxane A2 receptor antagonists with a dibenzoxepin ring system. 2” (J Med Chem, 1992).

Species: Cavia porcellus
Experiment: Compound was tested for its binding affinity at TXA2/PGH2 receptor by measuring its ability to displace [3H]U-46619 from guinea pig platelets at 0.1 uM
Conditions: not given

| inhibition | Structure (SMILES) |
| --- | --- |
| 35% | O=C(O)c1ccc2c(c1)/C(=C/Cn1nnc3ccccc31)c1ccccc1CO2 |
| -4% | Cc1cc2ncn(C/C=C3\c4ccccc4COc4ccc(C(=O)N5CCOCC5)cc43)c2cc1C |
| 6% | Cc1cc2ncn(C/C=C3\c4ccccc4COc4ccc(C(=O)Nc5ccccc5C(=O)O)cc43)c2cc1C |
| 4% | Cc1nc2ccccc2n1C/C=C1\c2ccccc2COc2ccc(C(=O)O)cc21 |
| 50% | O=C(O)c1ccc2c(c1)/C(=C\CCNS(=O)(=O)c1ccccc1)c1ccccc1CO2 |
| -6% | O=C(O)c1ccc2c(c1)/C(=C/Cn1cnc3cnccc31)c1ccccc1CO2 |
| 31% | COC(=O)c1ccc2c(c1)/C(=C/Cn1cnc3cc(C)c(C)cc31)c1ccccc1CO2 |

| Structure (SMILES) | inhibition |
| --- | --- |
| O=C(O)c1ccc2c(c1)C(SCCn1cnc3ccccc31)c1ccccc1CO2 (stereo not drawn) | 9% |

System: not listed separately
Experiment: Binding affinity at TXA2/PGH2 receptor by displacement of [3H]U-46619 from human platelets
Conditions: not given

| Structure (SMILES) | Ki |
| --- | --- |
| COc1ccc2ncn(C/C=C3\c4ccccc4COc4ccc(C(=O)O)cc43)c2c1 | 0.0074 µM |
| O=C(O)c1ccc2c(c1)/C(=C/Cn1cnc3cc4c(cc31)OCO4)c1ccccc1CO2 | 0.0038 µM |
| Cc1cc2ncn(C/C=C3\c4ccccc4COc4ccc(C(=O)O)cc43)c2cc1C | 0.0012 µM |
| COc1cc2ncn(C/C=C3\c4ccccc4COc4ccc(C(=O)O)cc43)c2cc1OC | 0.0022 µM |
| COc1ccc2c(c1)ncn2C/C=C1\c2ccccc2COc2ccc(C(=O)O)cc21 | 0.017 µM |
| O=C(O)c1ccc2c(c1)/C(=C/Cn1cnc3cc(F)ccc31)c1ccccc1CO2 | 0.015 µM |
| O=C(O)c1ccc2c(c1)/C(=C/Cn1cnc3cc(C(F)(F)F)ccc31)c1ccccc1CO2 | 0.085 µM |
| Cc1ccc2c(ncn2C/C=C2\c3ccccc3COc3ccc(C(=O)O)cc32)c1C | 0.046 µM |
| Cc1cccc2ncn(C/C=C3\c4ccccc4COc4ccc(C(=O)O)cc43)c12 | 0.008 µM |
| O=C(O)c1ccc2c(c1)/C(=C/Cn1cnc3ccc([N+](=O)[O-])cc31)c1ccccc1CO2 | 0.0091 µM |
| COc1cc(OC)c2ncn(C/C=C3\c4ccccc4COc4ccc(C(=O)O)cc43)c2c1 | 0.0091 µM |
| O=C(O)c1ccc2c(c1)/C(=C/Cn1cnc3ccc(C(=O)NCc4ccccc4)cc31)c1ccccc1CO2 | 0.014 µM |
| Cc1cc(C)c2ncn(C/C=C3\c4ccccc4COc4ccc(C(=O)O)cc43)c2c1 | 0.0076 µM |
| COc1cc(OC)c2c(c1)ncn2C/C=C1\c2ccccc2COc2ccc(C(=O)O)cc21 | 0.0067 µM |
| O=C(O)c1ccc2c(c1)/C(=C/Cn1cnc3cc([N+](=O)[O-])ccc31)c1ccccc1CO2 | 0.0092 µM |
| O=C(O)c1ccc2c(c1)/C(=C/Cn1cnc3cc(C(=O)NCc4ccccc4)ccc31)c1ccccc1CO2 | 0.0074 µM |
| Cc1ccc2c(c1)ncn2C/C=C1\c2ccccc2COc2ccc(C(=O)O)cc21 | 0.11 µM |
| Cc1ccc2ncn(C/C=C3\c4ccccc4COc4ccc(C(=O)O)cc43)c2c1 | 0.012 µM |
| Cc1cccc2c1ncn2C/C=C1\c2ccccc2COc2ccc(C(=O)O)cc21 | 0.038 µM |
| O=C(O)c1ccc2c(c1)/C(=C/Cn1cnc3ccc(Cl)cc31)c1ccccc1CO2 | 0.019 µM |
| O=C(O)c1ccc2c(c1)/C(=C/Cn1cnc3cc(Cl)ccc31)c1ccccc1CO2 | 0.011 µM |

Species: Cavia porcellus
Experiment: Inhibitory effect on the U-46619 induced platelet aggregation was determined ex vivo in the guinea pig
Assay type: functional
Conditions: not given

| Structure (SMILES) | Inhibition of U-46619-induced platelet aggregation | Aggregation |
| --- | --- | --- |
| O=C(O)c1ccc2c(c1)/C(=C/CNS(=O)(=O)c1ccccc1)c1ccccc1CO2 | 25% | – |
| O=C(O)c1ccc2c(c1)/C(=C\CCNS(=O)(=O)c1ccccc1)c1ccccc1CO2 | 59.3% | – |
| O=C(O)Cc1ccc(CCNS(=O)(=O)c2ccc(Cl)cc2)cc1 [DALTROBAN] | – | 0% |
| O=C([O-])c1ccc2c(c1)/C(=C\Cn1cnc3ccccc31)c1ccccc1CO2.[Na+] | 0% | – |
| O=C(O)c1ccc2c(c1)C(SCCc1nc3ccccc3[nH]1)c1ccccc1CO2 (stereo not drawn) | 66.3% | – |
| O=C(O)c1ccc2c(c1)C(SCCNS(=O)(=O)c1ccccc1)c1ccccc1CO2 (stereo not drawn) | 11.8% | – |

Target: not listed separately
Experiment: Binding affinity at TXA2/PGH2 receptor by measuring its ability to displace [3H]U-46619 from guinea pig platelets
Conditions: not given

| Structure (SMILES) | Ki |
| --- | --- |
| O=C(O)c1ccc2c(c1)C(SCCNS(=O)(=O)c1ccccc1)c1ccccc1CO2 (stereo not drawn) | 0.032 µM |

Same assay, conditions: Cavia porcellus; concentration not given here

| inhibition | Structure (SMILES) |
| --- | --- |
| -6% | O=C(O)c1ccc2c(c1)/C(=C/CCNS(=O)(=O)c1ccccc1)c1ccccc1CO2 |

System: not listed separately
Experiment: Binding affinity at Thromboxane A2/ Prostaglandin H2 receptor by measuring its ability to displace [3H]U-46619 from guinea pig platelets at a compound concentration of 0.1 uM
Conditions: Cavia porcellus

| inhibition | Structure (SMILES) |
| --- | --- |
| 11% | CSc1nc2ccccc2n1C/C=C1\c2ccccc2COc2ccc(C(=O)O)cc21 |
